Measured values published in ChEMBL document CHEMBL3045029, “Synthesis and antimicrobial activities of some isoxazolyl thiazolyl pyrazoles” (2012).

How the values were obtained:
Type in all cases: functional
Staphylococcus aureus = assay: Antibacterial activity against Staphylococcus aureus MTCC 7443 after 24 hr by serial dilution method
Bacillus subtilis = assay: Antibacterial activity against Bacillus subtilis MTCC 441 after 24 hr by serial dilution method
Aspergillus niger = assay: Antifungal activity against Aspergillus niger MTCC 282 after 120 hr by serial dilution method
Escherichia coli = assay: Antibacterial activity against Escherichia coli MTCC 42 after 24 hr by serial dilution method
Candida albicans = assay: Antifungal activity against Candida albicans MTCC 183 after 48 hr by serial dilution method

With C/C(=N\Nc1nc(-c2ccccc2)cs1)c1c(O)cc(C)oc1=O the “-logMIC” value (Staphylococcus aureus) was 1.737, the “-logMIC” value (Bacillus subtilis) was 1.435 and the “-logMIC” value (Aspergillus niger) was 1.435. For the same molecule, the “-logMIC” value (Escherichia coli) was 1.435 and the “-logMIC” value (Candida albicans) was 1.435.
In the case of C/C(=N\Nc1nc(-c2ccc(C)cc2)cs1)c1c(O)cc(C)oc1=O, the “-logMIC” value (Staphylococcus aureus) is reported as 1.453, the “-logMIC” value (Bacillus subtilis) is reported as 1.453 and the “-logMIC” value (Aspergillus niger) is reported as 1.435. For the same molecule, the “-logMIC” value (Escherichia coli) was 1.453 and the “-logMIC” value (Candida albicans) was 1.152.
COc1ccc(-c2csc(N/N=C(\C)c3c(O)cc(C)oc3=O)n2)cc1 was tested, and the “-logMIC” value (Staphylococcus aureus) was 1.472, the “-logMIC” value (Bacillus subtilis) was 1.171 and the “-logMIC” value (Aspergillus niger) was 1.472. For the same molecule, the “-logMIC” value (Escherichia coli) was 1.472 and the “-logMIC” value (Candida albicans) was 1.171.
For C/C(=N\Nc1nc(-c2ccc(Cl)cc2)cs1)c1c(O)cc(C)oc1=O, the “-logMIC” value (Staphylococcus aureus) was 1.478, the “-logMIC” value (Bacillus subtilis) was 1.478 and the “-logMIC” value (Aspergillus niger) was 1.478. The “-logMIC” value (Escherichia coli) was 1.478 and the “-logMIC” value (Candida albicans) was 1.478.
With CC(=O)CC(=O)c1c(C)[nH]n(-c2nc(-c3ccccc3)cs2)c1=O the “-logMIC” value (Staphylococcus aureus) was 1.435, the “-logMIC” value (Bacillus subtilis) was 1.435 and the “-logMIC” value (Aspergillus niger) was 1.435. The “-logMIC” value (Escherichia coli) was 1.435 and the “-logMIC” value (Candida albicans) was 1.435.
COc1ccc(-c2csc(-n3[nH]c(C)c(-c4cc(C)no4)c3=O)n2)cc1 was tested, and the “-logMIC” value (Staphylococcus aureus) was 1.771, the “-logMIC” value (Bacillus subtilis) was 1.771 and the “-logMIC” value (Aspergillus niger) was 1.771. The “-logMIC” value (Escherichia coli) was 1.47 and the “-logMIC” value (Candida albicans) was 1.47.
For Cc1cc(-c2c(C)[nH]n(-c3nc(-c4ccc(Cl)cc4)cs3)c2=O)on1, the “-logMIC” value (Staphylococcus aureus) was 2.077, the “-logMIC” value (Bacillus subtilis) was 1.775 and the “-logMIC” value (Aspergillus niger) was 1.474. For the same molecule, the “-logMIC” value (Escherichia coli) was 1.775 and the “-logMIC” value (Candida albicans) was 1.477.
For Cc1cc(-c2c(C)[nH]n(-c3nc(-c4ccccc4)cs3)c2=O)on1, the “-logMIC” value (Staphylococcus aureus) was 1.733, the “-logMIC” value (Bacillus subtilis) was 1.733 and the “-logMIC” value (Aspergillus niger) was 1.432. For the same molecule, the “-logMIC” value (Escherichia coli) was 1.733 and the “-logMIC” value (Candida albicans) was 1.432.
In the case of Cc1ccc(-c2csc(-n3[nH]c(C)c(-c4cc(C)no4)c3=O)n2)cc1, the “-logMIC” value (Staphylococcus aureus) is reported as 1.75, the “-logMIC” value (Bacillus subtilis) is reported as 1.75 and the “-logMIC” value (Aspergillus niger) is reported as 1.75. For the same molecule, the “-logMIC” value (Escherichia coli) was 1.75 and the “-logMIC” value (Candida albicans) was 1.449.
OC(Cn1cncn1)(Cn1cncn1)c1ccc(F)cc1F [FLUCONAZOLE] was tested, and the “-logMIC” value (Aspergillus niger) was 3 and the “-logMIC” value (Candida albicans) was 3.
For CCn1cc(C(=O)O)c(=O)c2cc(F)c(N3CCNCC3)cc21 [NORFLOXACIN], the “-logMIC” value (Staphylococcus aureus) was 2.698, the “-logMIC” value (Bacillus subtilis) was 2.698 and the “-logMIC” value (Escherichia coli) was 2.698.
